Tested on: mouse cortical cultures
Experiment: RNA-seq differential expression (DESeq) against matched vehicle
Assay type: cell-based
Parameters: key to MeanFenamidone Bcl11b / MeanFenamidone Slc12a4 / MeanFenamidone Abca1 / MeanFenamidone Hmox1 / MeanFenamidone Il1rap / MeanFenamidone Cyba / MeanFenamidone Narf / MeanFenamidone Bnip3 / MeanFenamidone Amotl2 / MeanFenamidone Gad2 / MeanFenamidone Vsnl1 / MeanFenamidone Fam178a: DESeq mean of counts over RefSeq exons
Conditions: for MeanFenamidone (DESeq mean normalized counts): Fenamidone, vs matched vehicle
Method: Figure 4 Cluster 2 chemicals alter expression of a common set of genes. […] RNA-seq was performed in quadruplicate after treating cortical cultures with fenamidone (10 μM) or pyraclostrobin (0.1 μM) for 24 h (n=3 biological replicates) and compared with matched vehicle controls using DESeq to detect differentially expressed genes, listed in Supplementary Data 4.
Cultures were treated with the non-cytotoxic dose of each chemical, by exchanging half of the original medium with chemicals at 2 × concentration in prewarmed feeding medium, on DIV 7 for 24 h in 12-well plates at a density of 5 × 10^5 cells per well. RNA was isolated using RNeasy plus mini kit (Cat. #74134, Qiagen). […]. Samples were further assessed for quality using either an Agilent Bioanalyzer 2100 or TapeStation 2200 to obtain a RIN. RIN values exceeding 7 were used for sequencing. RNA samples were used to generate and barcode complementary DNA libraries using the TruSeq RNA Library Preparation Kit at the UNC High Throughput Sequencing Facility. Pools of 24 multiplexed samples were sequenced per lane on an Illumina HiSeq 2500 using 50-bp paired-end reads.
RNA-seq reads were filtered using TagDust and aligned to the reference mouse genome (mm9) with TopHat using default parameters. Reads aligning to ribosomal RNA genes were removed. Transcript abundance was estimated by computing Reads per kilobase per million mapped reads (RPKM) using RefSeq gene models aggregated by gene symbol. For differential expression analyses, raw counts over RefSeq exons were used, and then were compared across samples using DESeq[62].

CSC1=N[C@@](C)(c2ccccc2)C(=O)N1Nc1ccccc1 [fenamidone]
log2FoldChange (gene Prss23): 2.578 | MeanFenamidone Ptpn14 (gene Ptpn14, DESeq mean, 4 reps): 536.253 | log2FoldChange Ptpn14 (gene Ptpn14, vs vehicle, 4 reps): 2.06 | MeanFenamidone (gene Ptpro): 128.9 | log2FoldChange (gene Ptpro): -1.349 | MeanFenamidone (gene Rab6b): 1528.43 | log2FoldChange (gene Rab6b): -1.231 | MeanFenamidone Rian (gene Rian, DESeq mean, 4 reps): 479.419 | log2FoldChange Rian (gene Rian, vs vehicle, 4 reps): -1.772 | MeanFenamidone Rimkla (gene Rimkla, DESeq mean, 4 reps): 54.5497 | log2FoldChange Rimkla (gene Rimkla, vs vehicle, 4 reps): -1.586 | MeanFenamidone Rph3a (gene Rph3a, DESeq mean, 4 reps): 62.2069 | log2FoldChange Rph3a (gene Rph3a, vs vehicle, 4 reps): -2.0001 | MeanFenamidone (gene Rsu1): 240.928 | log2FoldChange (gene Rsu1): 1.174 | MeanFenamidone Samd4 (gene Samd4, DESeq mean, 4 reps): 336.652 | log2FoldChange Samd4 (gene Samd4, vs vehicle, 4 reps): 1.621 | MeanFenamidone Scn2a1 (gene Scn2a1, DESeq mean, 4 reps): 402.156 | log2FoldChange Scn2a1 (gene Scn2a1, vs vehicle, 4 reps): -1.491 | MeanFenamidone Sdc1 (gene Sdc1, DESeq mean, 4 reps): 327.963 | log2FoldChange Sdc1 (gene Sdc1, vs vehicle, 4 reps): 1.6746 | MeanFenamidone (gene Sdc3): 1856.44 | log2FoldChange (gene Sdc3): -1.095 | MeanFenamidone Serpine2 (gene Serpine2, DESeq mean, 4 reps): 777.193 | log2FoldChange Serpine2 (gene Serpine2, vs vehicle, 4 reps): 1.421 | MeanFenamidone (DESeq mean normalized counts) (gene Serpinf1, 4 reps): 51.7434 | MeanFenamidone Serpini1 (gene Serpini1, DESeq mean, 4 reps): 255.176 | log2FoldChange Serpini1 (gene Serpini1, vs vehicle, 4 reps): -1.567 | MeanFenamidone (gene Sgpl1): 504.223 | log2FoldChange (gene Sgpl1): 1.381 | MeanFenamidone Shank1 (gene Shank1, DESeq mean, 4 reps): 288.972 | log2FoldChange Shank1 (gene Shank1, vs vehicle, 4 reps): -1.584 | MeanFenamidone (gene Shmt2): 164.927 | log2FoldChange (gene Shmt2): 1.37 | MeanFenamidone Slc3a2 (gene Slc3a2, DESeq mean, 4 reps): 1206 | log2FoldChange Slc3a2 (gene Slc3a2, vs vehicle, 4 reps): 1.496 | MeanFenamidone (gene Slc4a2): 227.842 | log2FoldChange (gene Slc4a2): 1.898 | MeanFenamidone Slc5a3 (gene Slc5a3, DESeq mean, 4 reps): 905.314 | log2FoldChange Slc5a3 (gene Slc5a3, vs vehicle, 4 reps): 1.342 | MeanFenamidone Slc8a3 (gene Slc8a3, DESeq mean, 4 reps): 22.3077 | log2FoldChange Slc8a3 (gene Slc8a3, vs vehicle, 4 reps): -2.167 | MeanFenamidone Slc12a4 (gene Slc12a4, DESeq mean, 4 reps): 353.466 | log2FoldChange Slc12a4 (gene Slc12a4, vs vehicle, 4 reps): 2.575 | MeanFenamidone Slc12a5 (gene Slc12a5, DESeq mean, 4 reps): 198.315 | log2FoldChange Slc12a5 (gene Slc12a5, vs vehicle, 4 reps): -1.614 | MeanFenamidone (gene Slc12a7): 123.511 | log2FoldChange (gene Slc12a7): 2.012 | MeanFenamidone Slc32a1 (gene Slc32a1, DESeq mean, 4 reps): 76.5704 | log2FoldChange Slc32a1 (gene Slc32a1, vs vehicle, 4 reps): -1.6789 | MeanFenamidone (gene Slit2): 473.475 | log2FoldChange (gene Slit2): 1.336 | MeanFenamidone (gene Slitrk3): 59.0221 | log2FoldChange (gene Slitrk3): -1.399 | MeanFenamidone Smpd3 (gene Smpd3, DESeq mean, 4 reps): 450.951 | log2FoldChange Smpd3 (gene Smpd3, vs vehicle, 4 reps): -1.523 | MeanFenamidone (gene Snap91): 577.837 | log2FoldChange (gene Snap91): -1.2276 | MeanFenamidone Snx33 (gene Snx33, DESeq mean, 4 reps): 193.085 | log2FoldChange Snx33 (gene Snx33, vs vehicle, 4 reps): 2.21 | MeanFenamidone (gene Sorl1): 374.526 | log2FoldChange (gene Sorl1): 1.703 | MeanFenamidone Spock3 (gene Spock3, DESeq mean, 4 reps): 49.3806 | log2FoldChange Spock3 (gene Spock3, vs vehicle, 4 reps): -2.6448 | MeanFenamidone Sprn (gene Sprn, DESeq mean, 4 reps): 108.373 | log2FoldChange Sprn (gene Sprn, vs vehicle, 4 reps): -1.675 | MeanFenamidone Srxn1 (gene Srxn1, DESeq mean, 4 reps): 1016.41 | log2FoldChange Srxn1 (gene Srxn1, vs vehicle, 4 reps): 2.241 | MeanFenamidone (gene Ssc5d): 60.5262 | log2FoldChange (gene Ssc5d): 1.812 | MeanFenamidone Ssfa2 (gene Ssfa2, DESeq mean, 4 reps): 339.098 | log2FoldChange Ssfa2 (gene Ssfa2, vs vehicle, 4 reps): 1.684 | MeanFenamidone (gene St8sia1): 138.691 | log2FoldChange (gene St8sia1): -1.185 | MeanFenamidone St8sia3 (gene St8sia3, DESeq mean, 4 reps): 218.799 | log2FoldChange St8sia3 (gene St8sia3, vs vehicle, 4 reps): -1.589 | MeanFenamidone (gene St8sia4): 83.2874 | log2FoldChange (gene St8sia4): -1.239 | MeanFenamidone (gene Sult4a1): 337.631 | log2FoldChange (gene Sult4a1): -1.1579 | MeanFenamidone Sv2b (gene Sv2b, DESeq mean, 4 reps): 206.444 | log2FoldChange Sv2b (gene Sv2b, vs vehicle, 4 reps): -1.8053 | MeanFenamidone (DESeq mean normalized counts) (gene Svil, 4 reps): 63.1892 | MeanFenamidone Syn2 (gene Syn2, DESeq mean, 4 reps): 290.905 | log2FoldChange Syn2 (gene Syn2, vs vehicle, 4 reps): -1.354 | MeanFenamidone Syp (gene Syp, DESeq mean, 4 reps): 891.603 | log2FoldChange Syp (gene Syp, vs vehicle, 4 reps): -1.4647 | MeanFenamidone Syt1 (gene Syt1, DESeq mean, 4 reps): 825.321 | log2FoldChange Syt1 (gene Syt1, vs vehicle, 4 reps): -1.819 | MeanFenamidone Tagln (gene Tagln, DESeq mean, 4 reps): 2032.34 | log2FoldChange Tagln (gene Tagln, vs vehicle, 4 reps): 3.012 | MeanFenamidone Tead1 (gene Tead1, DESeq mean, 4 reps): 925.254 | log2FoldChange Tead1 (gene Tead1, vs vehicle, 4 reps): 2.035 | MeanFenamidone Tgfb2 (gene Tgfb2, DESeq mean, 4 reps): 420.529 | log2FoldChange Tgfb2 (gene Tgfb2, vs vehicle, 4 reps): 1.82 | MeanFenamidone Tgfb3 (gene Tgfb3, DESeq mean, 4 reps): 398.538 | log2FoldChange Tgfb3 (gene Tgfb3, vs vehicle, 4 reps): 2.304 | MeanFenamidone Thbs1 (gene Thbs1, DESeq mean, 4 reps): 3138.32 | log2FoldChange Thbs1 (gene Thbs1, vs vehicle, 4 reps): 2.61 | MeanFenamidone Tln1 (gene Tln1, DESeq mean, 4 reps): 658.354 | log2FoldChange Tln1 (gene Tln1, vs vehicle, 4 reps): 2.579 | MeanFenamidone Tmbim1 (gene Tmbim1, DESeq mean, 4 reps): 170.347 | log2FoldChange Tmbim1 (gene Tmbim1, vs vehicle, 4 reps): 2.378 | MeanFenamidone (gene Tmem181b-ps): 77.9777 | log2FoldChange (gene Tmem181b-ps): -1.325 | MeanFenamidone (gene Tmem229b): 256.203 | log2FoldChange (gene Tmem229b): -1.123 | MeanFenamidone Tnc (gene Tnc, DESeq mean, 4 reps): 998.798 | log2FoldChange Tnc (gene Tnc, vs vehicle, 4 reps): 2.934 | MeanFenamidone Tnfrsf10b (gene Tnfrsf10b, DESeq mean, 4 reps): 126.269 | log2FoldChange Tnfrsf10b (gene Tnfrsf10b, vs vehicle, 4 reps): 2.1709 | MeanFenamidone Tnfrsf12a (gene Tnfrsf12a, DESeq mean, 4 reps): 307.752 | log2FoldChange Tnfrsf12a (gene Tnfrsf12a, vs vehicle, 4 reps): 3.087 | MeanFenamidone (gene Tns1): 238.258 | log2FoldChange (gene Tns1): 2.58 | MeanFenamidone Tpm4 (gene Tpm4, DESeq mean, 4 reps): 930.727 | log2FoldChange Tpm4 (gene Tpm4, vs vehicle, 4 reps): 1.809 | MeanFenamidone Tpp1 (gene Tpp1, DESeq mean, 4 reps): 440.575 | log2FoldChange Tpp1 (gene Tpp1, vs vehicle, 4 reps): 1.842 | MeanFenamidone (gene Tro): 343.733 | log2FoldChange (gene Tro): -1.218 | MeanFenamidone (gene Tspyl4): 870.895 | log2FoldChange (gene Tspyl4): -1.118 | MeanFenamidone Tuba4a (gene Tuba4a, DESeq mean, 4 reps): 131.218 | log2FoldChange Tuba4a (gene Tuba4a, vs vehicle, 4 reps): -1.604 | MeanFenamidone Tubb6 (gene Tubb6, DESeq mean, 4 reps): 522.566 | log2FoldChange Tubb6 (gene Tubb6, vs vehicle, 4 reps): 2.127 | MeanFenamidone Tuft1 (gene Tuft1, DESeq mean, 4 reps): 71.0226 | log2FoldChange Tuft1 (gene Tuft1, vs vehicle, 4 reps): 2.58 | MeanFenamidone Txnrd1 (gene Txnrd1, DESeq mean, 4 reps): 1365.85 | log2FoldChange Txnrd1 (gene Txnrd1, vs vehicle, 4 reps): 1.713 | MeanFenamidone Uap1l1 (gene Uap1l1, DESeq mean, 4 reps): 115.372 | log2FoldChange Uap1l1 (gene Uap1l1, vs vehicle, 4 reps): 2.463 | MeanFenamidone (gene Vash1): 501.714 | log2FoldChange (gene Vash1): -1.142 | MeanFenamidone Vasn (gene Vasn, DESeq mean, 4 reps): 270.313 | log2FoldChange Vasn (gene Vasn, vs vehicle, 4 reps): 2.194 | MeanFenamidone Vcl (gene Vcl, DESeq mean, 4 reps): 498.388 | log2FoldChange Vcl (gene Vcl, vs vehicle, 4 reps): 2.095 | MeanFenamidone Vgll3 (gene Vgll3, DESeq mean, 4 reps): 231.289 | log2FoldChange Vgll3 (gene Vgll3, vs vehicle, 4 reps): 2.348 | MeanFenamidone (gene Vim): 6511.9 | log2FoldChange (gene Vim): 1.994 | MeanFenamidone Vsnl1 (gene Vsnl1, DESeq mean, 4 reps): 216.784 | log2FoldChange Vsnl1 (gene Vsnl1, vs vehicle, 4 reps): -1.6854 | MeanFenamidone Wls (gene Wls, DESeq mean, 4 reps): 676.758 | log2FoldChange Wls (gene Wls, vs vehicle, 4 reps): 1.397 | MeanFenamidone Wnk1 (gene Wnk1, DESeq mean, 4 reps): 1955.12 | log2FoldChange Wnk1 (gene Wnk1, vs vehicle, 4 reps): 1.378 | MeanFenamidone Xkr4 (gene Xkr4, DESeq mean, 4 reps): 97.5483 | log2FoldChange Xkr4 (gene Xkr4, vs vehicle, 4 reps): -1.595 | MeanFenamidone (gene Zak): 216.098 | log2FoldChange (gene Zak): 1.697 | MeanFenamidone (gene Zbtb7b): 137.122 | log2FoldChange (gene Zbtb7b): 2.108 | MeanFenamidone Zfp36l2 (gene Zfp36l2, DESeq mean, 4 reps): 339.831 | log2FoldChange Zfp36l2 (gene Zfp36l2, vs vehicle, 4 reps): 2.067

— publication PMC4821887, “Identification of chemicals that mimic transcriptional changes associated with autism, brain aging and neurodegeneration” (Nature Communications, 2016)
